Laboratory results as given in BigSolDB 2.1.

solubility (mole fraction) (in DMF, 278.15 K) | solubility (mole fraction) (in DMF, 283.15 K) | solubility (mole fraction) (in DMF, 288.15 K) | solubility (mole fraction) (in DMF, 293.15 K) | solubility (mole fraction) (in DMF, 298.15 K) | solubility (mole fraction) (in DMF, 303.15 K) | solubility (mole fraction) (in DMF, 308.15 K) | solubility (mole fraction) (in DMF, 313.15 K) | solubility (mole fraction) (in DMF, 318.15 K) | solubility (mole fraction) (in water, 278.15 K) | solubility (mole fraction) (in water, 283.15 K) | solubility (mole fraction) (in water, 288.15 K) | solubility (mole fraction) (in water, 293.15 K) | solubility (mole fraction) (in water, 298.15 K) | solubility (mole fraction) (in water, 303.15 K) | solubility (mole fraction) (in water, 308.15 K) | solubility (mole fraction) (in water, 313.15 K) | solubility (mole fraction) (in water, 318.15 K) | SMILES
0.00011 | 0.00012 | 0.00014 | 0.00015 | 0.00017 | 0.00018 | 0.0002 | 0.00021 | 0.00023 | 0.0011 | 0.00115 | 0.00124 | 0.00128 | 0.00135 | 0.00144 | 0.00155 | 0.00164 | 0.00178 | CC(C)CC(N)C(=O)O (racemic)
0.00023 | 0.00024 | 0.00025 | 0.00026 | 0.00027 | 0.00028 | 0.00029 | 0.0003 | 0.00031 | 0.0025 | 0.00269 | 0.0027 | 0.0029 | 0.003 | 0.0032 | 0.0034 | 0.0036 | 0.0038 | CC[C@H](C)[C@H](N)C(=O)O (racemic)
